What was measured:
[1] = target: T1, alcohol oxidase from Pichia pastoris (Komagataella phaffii, UniProt P04842); assay: Characteristics of the Pichia enzyme (Km, inhibitors, substrate reactivity); type: biochemical
T1 construct: preparation and isolation of pure crystalline alcohol oxidase from Pichia pastoris; endogenous in cells; homogenate supernatant dialysed to give crystalline enzyme
T1 sequence (P04842 1-663): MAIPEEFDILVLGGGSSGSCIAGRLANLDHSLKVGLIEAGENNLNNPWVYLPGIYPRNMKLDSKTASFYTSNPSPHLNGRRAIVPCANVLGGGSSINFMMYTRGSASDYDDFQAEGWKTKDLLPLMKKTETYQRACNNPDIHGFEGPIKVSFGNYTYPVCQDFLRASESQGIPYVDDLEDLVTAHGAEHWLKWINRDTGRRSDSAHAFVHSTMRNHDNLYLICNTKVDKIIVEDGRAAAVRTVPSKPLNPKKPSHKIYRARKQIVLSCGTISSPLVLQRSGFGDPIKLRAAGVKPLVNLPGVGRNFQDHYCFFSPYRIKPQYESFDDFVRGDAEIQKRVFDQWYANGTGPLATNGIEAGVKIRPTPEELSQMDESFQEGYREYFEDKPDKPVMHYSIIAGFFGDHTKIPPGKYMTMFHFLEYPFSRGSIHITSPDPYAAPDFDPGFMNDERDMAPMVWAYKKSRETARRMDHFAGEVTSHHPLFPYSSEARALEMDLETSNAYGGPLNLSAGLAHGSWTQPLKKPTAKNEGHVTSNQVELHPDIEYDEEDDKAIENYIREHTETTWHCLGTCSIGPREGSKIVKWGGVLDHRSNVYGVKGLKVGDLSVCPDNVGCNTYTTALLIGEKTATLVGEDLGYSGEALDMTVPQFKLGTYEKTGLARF

[2] = substrate: CO; assay: purified protein, by the assay type; details: other: apparent Michaelis constant; pH 6.5

CO [Methanol]
Km ([1]; read-out: Km for methanol, apparent Michaelis constant): 4 mM

CC=O [acetaldehyde]
reactivity of the alcohol oxidase toward substrate [1]: not reactive

B1: alcohol oxidase from Pichia pastoris (Komagataella phaffii GS115) (protein)
chain: T1 sequence (P04842 1-663)
Km [2]: 4 mM
